Laboratory results as given in ChEMBL document CHEMBL1129209, “Molecular interactions of all possible regioisomers of synthetic myo-inositol phosphates with inositol 1,4,5-trisphosphate 3-kinase” (Bioorg Med Chem Lett, 1997).
pIC50: −log10 of the molar value.

Assay: Inhibition of Inositol 1,4,5-trisphosphate 3-kinase (IP3K) from rat brain

Row | pIC50 | Structure (SMILES)
1 | 3.66 | O=P(O)(O)O[C@H]1[C@H](O)[C@@H](OP(=O)(O)O)[C@H](OP(=O)(O)O)[C@@H](OP(=O)(O)O)[C@H]1O (stereo in doubt; form 3)
2 | 4.19 | O=P(O)(O)O[C@H]1[C@H](O)[C@@H](OP(=O)(O)O)[C@H](OP(=O)(O)O)[C@@H](OP(=O)(O)O)[C@H]1O (stereo in doubt; form 4)
3 | 5.45 | O=P(O)(O)O[C@@H]1[C@H](O)[C@H](O)[C@@H](OP(=O)(O)O)[C@H](OP(=O)(O)O)[C@H]1O (stereo in doubt; form 1) [INS(1,4,5)P3]
4 | 4.38 | O=P(O)(O)O[C@H]1[C@H](O)[C@@H](OP(=O)(O)O)[C@H](OP(=O)(O)O)[C@@H](OP(=O)(O)O)[C@H]1O (stereo in doubt; form 1)
5 | 4.91 | O=P(O)(O)O[C@@H]1[C@H](O)[C@H](O)[C@@H](OP(=O)(O)O)[C@H](OP(=O)(O)O)[C@H]1O (stereo in doubt; form 2) [INS(1,4,5)P3]
6 | 4.25 | O=P(O)(O)O[C@H]1[C@H](O)[C@@H](OP(=O)(O)O)[C@H](OP(=O)(O)O)[C@@H](OP(=O)(O)O)[C@H]1O (stereo in doubt; form 2)
